Legend:
[1] = target: Mitogen-activated protein kinase kinase kinase 9 (Homo sapiens, UniProt P80192); test: Inhibition of recombinant human MLK1 (134 to 414 residues) using casein as substrate incubated for 40 mins in presence of [gamma-33ATP by radiometric scintillation counting analysis
[2] = target: Tyrosine-protein kinase ABL1 (Homo sapiens, UniProt P00519, T315I); test: Inhibition of human recombinant ABL1 T315I mutant (27 to end residues) using EAIYAAPFAKKK as substrate incubated for 40 mins in presence of [gamma-33P]ATP by radiometric scintillation counting analysis
[3] = Half life in human liver microsomes measured upto 45 mins in presence of NADPH by LC-MS analysis; type: ADME, Microsome
[4] = target: Calcium/calmodulin-dependent protein kinase type II subunit gamma (Homo sapiens, UniProt Q13555); test: Inhibition of recombinant human CaMK2gamma (1 to 330 residues) using calmodulin as substrate incubated for 40 mins in presence of [gamma-33ATP] by radiometric scintillation counting analysis
[5] = target: Tyrosine-protein kinase ZAP-70 (Homo sapiens, UniProt P43403); test: Inhibition of recombinant full length human ZAP70 using poly(Glu, Tyr) 4:1 as substrate incubated for 40 mins in presence of [gamma33P]ATP by radiometric scintillation counting analysis
[6] = target: Serine-protein kinase ATM (Homo sapiens, UniProt Q13315); test: Inhibition of recombinant full-length human ATM using GST-cMyc-p53 as substrate measured after 40 mins by ELISA
Chain of Serine-protein kinase ATM (Q13315 whole entry, the tested form may be a part): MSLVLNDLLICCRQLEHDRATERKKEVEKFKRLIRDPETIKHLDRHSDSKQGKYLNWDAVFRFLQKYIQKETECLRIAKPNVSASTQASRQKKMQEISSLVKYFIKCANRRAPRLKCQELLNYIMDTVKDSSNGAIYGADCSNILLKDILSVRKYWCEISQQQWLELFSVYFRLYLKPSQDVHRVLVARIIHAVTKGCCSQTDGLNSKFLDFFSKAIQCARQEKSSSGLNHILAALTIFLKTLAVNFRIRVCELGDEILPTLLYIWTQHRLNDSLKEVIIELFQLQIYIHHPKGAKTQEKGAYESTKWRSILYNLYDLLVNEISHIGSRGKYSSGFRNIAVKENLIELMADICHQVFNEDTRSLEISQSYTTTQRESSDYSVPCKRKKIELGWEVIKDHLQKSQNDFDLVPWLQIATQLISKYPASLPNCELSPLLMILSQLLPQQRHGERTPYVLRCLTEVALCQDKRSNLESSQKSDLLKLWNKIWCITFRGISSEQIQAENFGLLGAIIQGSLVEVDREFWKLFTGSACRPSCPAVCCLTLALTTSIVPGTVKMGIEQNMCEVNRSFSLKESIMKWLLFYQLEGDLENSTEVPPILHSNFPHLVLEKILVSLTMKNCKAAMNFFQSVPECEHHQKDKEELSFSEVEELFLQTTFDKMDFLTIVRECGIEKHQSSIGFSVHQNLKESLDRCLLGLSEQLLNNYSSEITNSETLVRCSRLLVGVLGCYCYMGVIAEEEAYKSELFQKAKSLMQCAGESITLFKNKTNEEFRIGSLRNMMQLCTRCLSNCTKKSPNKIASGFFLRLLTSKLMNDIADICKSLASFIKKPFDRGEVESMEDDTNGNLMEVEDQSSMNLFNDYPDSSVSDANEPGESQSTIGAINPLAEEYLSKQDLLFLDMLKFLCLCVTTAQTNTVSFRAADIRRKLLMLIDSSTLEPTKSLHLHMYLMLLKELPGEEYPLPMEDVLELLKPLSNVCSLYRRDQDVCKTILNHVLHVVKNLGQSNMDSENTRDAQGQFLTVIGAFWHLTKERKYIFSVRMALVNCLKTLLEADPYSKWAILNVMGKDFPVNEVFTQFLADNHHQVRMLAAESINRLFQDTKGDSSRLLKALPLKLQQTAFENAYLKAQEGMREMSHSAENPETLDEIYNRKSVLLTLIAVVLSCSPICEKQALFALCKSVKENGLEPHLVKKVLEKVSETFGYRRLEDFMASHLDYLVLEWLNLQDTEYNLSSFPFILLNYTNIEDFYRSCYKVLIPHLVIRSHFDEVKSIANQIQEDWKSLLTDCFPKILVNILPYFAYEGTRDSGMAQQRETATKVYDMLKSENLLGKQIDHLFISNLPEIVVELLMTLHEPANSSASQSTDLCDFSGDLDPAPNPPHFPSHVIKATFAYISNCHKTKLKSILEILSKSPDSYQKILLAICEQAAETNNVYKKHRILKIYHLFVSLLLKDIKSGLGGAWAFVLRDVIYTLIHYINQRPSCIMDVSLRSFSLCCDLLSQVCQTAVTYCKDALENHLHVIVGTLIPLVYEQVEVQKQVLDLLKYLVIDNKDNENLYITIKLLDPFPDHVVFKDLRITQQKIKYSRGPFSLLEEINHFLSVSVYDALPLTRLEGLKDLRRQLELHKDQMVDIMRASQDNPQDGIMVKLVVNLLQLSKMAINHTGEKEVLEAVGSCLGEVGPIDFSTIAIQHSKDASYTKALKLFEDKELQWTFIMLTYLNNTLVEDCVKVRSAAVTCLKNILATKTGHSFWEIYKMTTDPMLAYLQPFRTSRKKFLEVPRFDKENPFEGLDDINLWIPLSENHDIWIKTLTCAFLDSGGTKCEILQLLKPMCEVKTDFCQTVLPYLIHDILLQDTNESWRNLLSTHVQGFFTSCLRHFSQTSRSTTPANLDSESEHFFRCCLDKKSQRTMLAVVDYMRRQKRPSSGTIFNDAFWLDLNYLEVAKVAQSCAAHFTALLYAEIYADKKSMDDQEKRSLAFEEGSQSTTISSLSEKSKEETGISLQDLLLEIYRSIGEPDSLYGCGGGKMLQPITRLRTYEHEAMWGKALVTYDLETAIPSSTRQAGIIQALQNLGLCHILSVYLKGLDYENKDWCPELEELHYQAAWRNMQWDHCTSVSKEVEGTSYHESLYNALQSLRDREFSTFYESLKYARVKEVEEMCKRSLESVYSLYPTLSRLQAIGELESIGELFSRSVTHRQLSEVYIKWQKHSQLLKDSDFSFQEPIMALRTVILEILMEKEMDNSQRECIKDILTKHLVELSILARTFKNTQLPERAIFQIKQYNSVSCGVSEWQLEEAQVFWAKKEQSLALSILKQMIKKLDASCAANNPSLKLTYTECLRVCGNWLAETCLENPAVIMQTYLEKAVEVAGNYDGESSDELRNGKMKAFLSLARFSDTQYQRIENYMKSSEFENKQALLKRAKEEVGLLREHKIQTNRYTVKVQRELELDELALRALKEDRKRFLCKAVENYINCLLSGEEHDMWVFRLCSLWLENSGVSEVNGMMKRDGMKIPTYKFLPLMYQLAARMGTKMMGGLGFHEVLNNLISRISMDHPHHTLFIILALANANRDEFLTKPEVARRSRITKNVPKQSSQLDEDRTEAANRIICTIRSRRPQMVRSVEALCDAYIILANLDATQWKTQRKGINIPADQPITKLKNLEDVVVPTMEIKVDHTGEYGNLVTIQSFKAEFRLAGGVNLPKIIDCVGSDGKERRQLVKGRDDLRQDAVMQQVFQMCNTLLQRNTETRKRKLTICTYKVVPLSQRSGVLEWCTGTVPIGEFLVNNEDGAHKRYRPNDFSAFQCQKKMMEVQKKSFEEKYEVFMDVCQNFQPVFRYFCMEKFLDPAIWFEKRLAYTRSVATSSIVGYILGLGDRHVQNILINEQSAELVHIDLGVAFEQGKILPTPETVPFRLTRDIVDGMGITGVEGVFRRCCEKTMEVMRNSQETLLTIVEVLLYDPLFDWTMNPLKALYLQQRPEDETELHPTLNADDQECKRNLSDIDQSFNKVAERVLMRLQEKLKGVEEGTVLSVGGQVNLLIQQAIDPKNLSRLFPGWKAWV

[7] = target: Myosin-IIIb (Homo sapiens, UniProt Q8WXR4); test: Inhibition of recombinant human MYO3B (1 to 326 residues) using RLGRDKYKTLRQI as substrate measured after 40 mins in presence of [gamma33P]ATP by radiometric scintillation counting analysis
[8] = target: Protein kinase C beta type (Homo sapiens, UniProt P05771); test: Inhibition of recombinant human PKCbeta2 (2 to end residues) using histone H1 as substrate incubated for 40 mins in presence of [gamma33P]ATP by radiometric scintillation counting analysis
[9] = target: Protein-tyrosine kinase 2-beta (Homo sapiens, UniProt Q14289); test: Inhibition of recombinant human full length PYK2 using poly(Glu, Tyr) 4:1 as substrate incubated for 40 mins in presence of [gamma33P]ATP by radiometric scintillation counting analysis
[10] = target: Activated CDC42 kinase 1 (Homo sapiens, UniProt Q07912); test: Inhibition of human recombinant ACK1 (1 to 389 residues) using EFPIYDFLPAKKK as substrate incubated for 40 mins in presence of [gamma-33P]ATP by radiometric scintillation counting analysis
[11] = Inhibition of recombinant human PAK2 L150F/P225T/A339 deletion/V383I mutant (3 to end residues) using KEAKEKRQEQIAKR as substrate incubated for 40 mins in presence of [gamma33P]ATP by radiometric scintillation counting analysis
[12] = target: Mitogen-activated protein kinase 1 (Homo sapiens, UniProt P28482); test: Inhibition of recombinant full length human MAPK1 using myelin basic protein as substrate incubated for 40 mins in presence of [gamma-33ATP by radiometric scintillation counting analysis
Chain of Mitogen-activated protein kinase 1 (P28482 whole entry): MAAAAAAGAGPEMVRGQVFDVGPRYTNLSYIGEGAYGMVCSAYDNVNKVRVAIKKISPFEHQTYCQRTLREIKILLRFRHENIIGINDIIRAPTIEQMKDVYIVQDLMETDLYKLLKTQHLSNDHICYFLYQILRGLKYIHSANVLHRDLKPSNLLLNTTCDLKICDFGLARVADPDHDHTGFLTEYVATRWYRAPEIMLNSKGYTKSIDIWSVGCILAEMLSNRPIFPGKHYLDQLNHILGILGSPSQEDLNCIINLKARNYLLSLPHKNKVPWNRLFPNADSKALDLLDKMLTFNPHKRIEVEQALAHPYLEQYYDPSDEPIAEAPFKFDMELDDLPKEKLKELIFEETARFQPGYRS

[13] = target: RAC-gamma serine/threonine-protein kinase (Homo sapiens, UniProt Q9Y243, S472D); test: Inhibition of recombinant human PKBgamma S472D mutant (117 to end residues) using GRPRTSSFAEGKK as substrate incubated for 40 mins in presence of [gamma33P]ATP by radiometric scintillation counting analysis
[14] = target: Ephrin type-A receptor 8 (Homo sapiens, UniProt P29322); test: Inhibition of recombinant human EPhA8 (615 to 911 residues) at 10 uM using KTFCGTPEYLAPE as substrate incubated for 40 mins in presence of [gamma-33PATP] by radiometric scintillation counting analysis
[15] = target: MAP kinase-activated protein kinase 3 (Homo sapiens, UniProt Q16644); test: Inhibition of recombinant human MAPKAPK3 (2 to end residues) using KKLNRTLSVA as substrate incubated for 40 mins in presence of [gamma-33ATP by radiometric scintillation counting analysis
Chain of MAP kinase-activated protein kinase 3 (Q16644 whole entry): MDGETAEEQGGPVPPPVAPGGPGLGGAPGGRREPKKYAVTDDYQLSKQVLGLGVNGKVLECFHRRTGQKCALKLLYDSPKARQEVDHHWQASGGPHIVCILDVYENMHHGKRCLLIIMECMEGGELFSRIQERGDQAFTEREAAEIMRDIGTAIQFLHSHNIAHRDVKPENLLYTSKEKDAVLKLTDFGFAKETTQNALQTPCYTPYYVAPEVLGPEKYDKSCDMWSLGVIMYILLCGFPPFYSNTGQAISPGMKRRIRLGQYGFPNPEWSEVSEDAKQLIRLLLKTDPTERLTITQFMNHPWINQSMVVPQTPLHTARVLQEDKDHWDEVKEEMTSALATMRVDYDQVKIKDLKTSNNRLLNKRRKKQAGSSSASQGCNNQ

[16] = Inhibition of recombinant full length human PRAK R291E mutant using KKLRRTLSVA as substrate incubated for 40 mins in presence of [gamma33P]ATP by radiometric scintillation counting analysis
[17] = target: Vascular endothelial growth factor receptor 1 (Homo sapiens, UniProt P17948); test: Inhibition of recombinant human FLT1 (783 to end residues) using KKKSPGEYVNIEF as substrate after 40 mins in presence of [gamma-33ATP] by radiometric scintillation counting analysis
[18] = target: Testis-specific serine/threonine-protein kinase 4 (Homo sapiens, UniProt Q6SA08); test: Inhibition of recombinant full-length human TSSK4 using KKLNRTLSFAEPG as substrate incubated for 40 mins in presence of [gamma33P]ATP by radiometric scintillation counting analysis
[19] = target: CDK2/Cyclin A1 (Homo sapiens, UniProt P24941); test: Inhibition of recombinant full length human CDK2/CyclinA using Histone H1 as substrate incubated for 40 mins in presence of [gamma-33ATP] by radiometric scintillation counting analysis; type: protein-complex assay
[20] = Inhibition of recombinant human FLT4 V1128L/H1146R double mutant (800 to end residues) using GGEEEEYFELVKK as substrate after 40 mins in presence of [gamma-33ATP] by radiometric scintillation counting analysis
[21] = Half life in rat liver microsomes measured upto 45 mins in presence of NADPH by LC-MS analysis; type: ADME, Microsome
[22] = target: Serine/threonine-protein kinase/endoribonuclease IRE1 (Homo sapiens, UniProt O75460); test: Inhibition of human recombinant IRE1 (465 to end residues) using myelin basic protein as substrate after 40 mins by [gamma-33ATP] by radiometric scintillation counting analysis
[23] = target: Serine/threonine-protein kinase pim-3 (Homo sapiens, UniProt Q86V86); test: Inhibition of recombinant human Pim3 (2 to end residues) using RSRHSSYPAGT as substrate incubated for 40 mins in presence of [gamma33P]ATP by radiometric scintillation counting analysis
[24] = target: Serine/threonine-protein kinase TAO1 (Homo sapiens, UniProt Q7L7X3); test: Inhibition of recombinant human TAO1 (1 to 327 residues) using myelin basic protein as substrate incubated for 40 mins in presence of [gamma33P]ATP by radiometric scintillation counting analysis
Chain of Serine/threonine-protein kinase TAO1 (Q7L7X3 whole entry, the tested form may be a part): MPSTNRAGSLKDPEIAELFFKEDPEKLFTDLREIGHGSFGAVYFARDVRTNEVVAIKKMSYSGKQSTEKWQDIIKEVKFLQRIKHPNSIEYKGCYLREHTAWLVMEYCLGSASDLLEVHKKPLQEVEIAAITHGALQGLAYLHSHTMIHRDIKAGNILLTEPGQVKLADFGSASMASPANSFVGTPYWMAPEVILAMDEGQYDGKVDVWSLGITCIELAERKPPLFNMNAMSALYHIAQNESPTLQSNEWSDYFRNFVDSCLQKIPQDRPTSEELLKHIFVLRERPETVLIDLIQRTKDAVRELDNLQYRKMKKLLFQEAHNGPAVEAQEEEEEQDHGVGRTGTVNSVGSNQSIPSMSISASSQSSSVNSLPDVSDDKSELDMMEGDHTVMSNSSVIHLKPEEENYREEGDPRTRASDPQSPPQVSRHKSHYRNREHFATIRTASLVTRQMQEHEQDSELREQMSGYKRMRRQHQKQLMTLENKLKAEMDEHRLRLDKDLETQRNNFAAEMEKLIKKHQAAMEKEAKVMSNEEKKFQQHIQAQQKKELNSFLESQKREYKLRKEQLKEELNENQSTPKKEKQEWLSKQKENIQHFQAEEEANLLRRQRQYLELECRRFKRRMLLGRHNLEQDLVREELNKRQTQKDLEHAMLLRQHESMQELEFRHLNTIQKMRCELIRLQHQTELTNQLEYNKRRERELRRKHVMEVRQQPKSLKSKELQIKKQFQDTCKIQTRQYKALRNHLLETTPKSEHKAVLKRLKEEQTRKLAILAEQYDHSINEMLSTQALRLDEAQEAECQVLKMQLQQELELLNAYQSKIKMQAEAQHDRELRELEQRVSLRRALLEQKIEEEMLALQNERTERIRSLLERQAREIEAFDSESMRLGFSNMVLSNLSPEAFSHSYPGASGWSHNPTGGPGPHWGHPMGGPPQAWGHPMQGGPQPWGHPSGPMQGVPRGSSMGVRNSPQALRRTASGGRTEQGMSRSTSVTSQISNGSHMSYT

[25] = target: Serine/threonine-protein kinase haspin (Homo sapiens, UniProt Q8TF76); test: Inhibition of human recombinant Haspin (471 to end residues) using RARTLSFAEPG as substrate after 40 mins by [gamma-33ATP] radiometric assay
[26] = target: Mast/stem cell growth factor receptor Kit (Homo sapiens, UniProt P10721); test: Inhibition of recombinant human C-Kit (544 to end residues) using poly (Glu,Tyr) 4:1 as substrate in presence of [gamma-33ATP] by radiometric scintillation counting analysis

## CN(C)c1ccc(C(=O)Nc2cccc(NC(=O)COc3ccc4c(=O)ccoc4c3)c2)cc1
[1]
  IC50: > 10 µM
[2]
  IC50: > 10 µM
[3]
  half-life: 8.05 min
[4]
  IC50: > 10 µM
[5]
  IC50: > 10 µM
[6]
  IC50: > 10 µM
[7]
  IC50: > 10 µM
[8]
  IC50: > 10 µM
[9]
  IC50: > 10 µM
[10]
  IC50: > 10 µM
[11]
  IC50: > 10 µM
[12]
  IC50: > 10 µM
[13]
  IC50: > 10 µM
[14]
  IC50: > 10 µM
[15]
  IC50: > 10 µM
[16]
  IC50: > 10 µM
[17]
  IC50: > 10 µM
[18]
  IC50: > 10 µM
[19]
  IC50: > 10 µM
[20]
  IC50: > 10 µM
[21]
  half-life: 1.1 min
[22]
  IC50: > 10 µM
[23]
  IC50: > 10 µM
[24]
  IC50: > 10 µM
[25]
  IC50: > 10 µM
[26]
  IC50: > 10 µM
